Source: patent US20210353573A1, “A SOFT-GEL CAPSULE FORMULATION, METHOD OF MANUFACTURE AND USE THEREOF” (Chanelle Pharmaceuticals Manufacturing Ltd., priority 2018, published 2021)

Test: Excipient compatibility studies (glycerol)
Format: physicochemical
Conditions: mixture with glycerol
Procedure: Various studies were carried out to determine an appropriate capsule shell formulation.

## ibuprofen lysine [ibuprofen lysinate]
  Compatibility with glycerol (colour change indicating degradation): turned brownish
